Measured values from paper PMC6297231 (Nature Communications, 2018).
Like-named read-outs stand apart in the source and are kept apart here.

Assays:
MV4-11 tumors = assay: MV4-11 subcutaneous mouse xenograft efficacy; assay type: in vivo, mice; conditions: for tumor regression (TR): transient
Procedure: Female C.B.-17 SCID mice and female nude rats were purchased from Charles River Laboratories. […]. All xenograft studies were conducted at our Association for the Assessment and Accreditation of Laboratory Animal Care accredited facility in Waltham, MA in accordance with ethical regulations described in the guidelines established by the internal Institutional Animal Care and Use Committee. […]. In mice, drugs were dosed intravenously in a volume of 5 mL kg^-1 except for venetoclax that was dosed orally in a volume of 10 mL kg^-1. […]. Ten million MV4-11 cells were injected subcutaneously in the right flank of rats in a volume of 0.1 mL. Tumor volumes (measured by caliper), animal body weight, and tumor condition were recorded twice weekly for the duration of the study. The tumor volume was calculated using the formula: length (mm) × width (mm)^2[…]. For efficacy studies, growth inhibition from the start of treatment was assessed by comparison of the differences in tumor volume between control and treated groups. Statistical significance was evaluated using non-parametric, unpaired, two-tailed t-test. For efficacy studies, animals were randomized based on tumor volumes using stratified sampling, and enrolled into control and treatment groups. Dosing began when mean tumor size reached ~230 mm^3 in mice and 900 mm^3 in rats. Mice were euthanized once tumor size reached 2000 mm^3. Mice were excluded from the study upon body weight loss > 10% of the body weight at the initiation of the study. For pharmacokinetic analysis, plasma samples were precipitated and diluted with acetonitrile containing internal standard and analyzed by LC–MS/MS versus a calibration curve of known concentrations.

Ramos [1] = assay: Cell viability assay; assay type: cell-based; conditions: Homo sapiens, 24 h; Ramos (NHL); read-out: AZD5991 24h GI50
Procedure: (§2) Cells were plated at 3000 cells/well in 384-well white plates in corresponding cell growth media. […] Caspase-3/7 activation was subsequently determined using a Caspase-Glo 3/7 Reagent (Promega) and viability was assayed using the CellTiter-Glo Reagent (Promega) as described in manufacturer’s instructions. Dose–response curves for caspase-3/7 activation and viability were plotted and analyzed (including EC50 and GI50 determination) using GraphPad Prism.

H2126 = assay: Cell viability assay; assay type: cell-based; conditions: Homo sapiens, NCI-H2126, 24 h; H2126 (Lung); read-out: AZD5991 24h GI50
Procedure: as §2

KG1 = assay: Caspase-3/7 activation assay; assay type: cell-based; conditions: Homo sapiens, KG-1, 6 h
Procedure: as §2

Calu1 = assay: cells; conditions: Homo sapiens, Calu-1, 6 h, read-out: AZD5991 6h EC50
Summary of the method: (§1)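 Cells were seeded at 3000 cells/well in their respective growth media and treated with compound. Caspase-3/7 activation was read by Caspase-Glo 3/7 luminescence and viability by CellTiter-Glo; EC50 and GI50 came from dose–response curves. Caspase activation is expressed relative to a cell-kill control set at 100%.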

Colo205 = assay: cells; conditions: Homo sapiens, COLO 205, 6 h, read-out: AZD5991 6h EC50
Summary of the method: as §1

DMS79 = assay: cells; conditions: Homo sapiens, DMS-79, 6 h, read-out: AZD5991 6h EC50
Summary of the method: as §1

Daudi = assay: cells; conditions: Homo sapiens, 6 h, read-out: AZD5991 6h EC50
Summary of the method: as §1

GIST T1 = assay: cells; conditions: Homo sapiens, GISTT1, 6 h, read-out: AZD5991 6h EC50
Summary of the method: as §1

H1395 = assay: cells; conditions: Homo sapiens, NCI-H1395, 6 h, read-out: AZD5991 6h EC50
Summary of the method: as §1

H2171 = assay: cells; conditions: Homo sapiens, NCI-H2171, 6 h, read-out: AZD5991 6h EC50
Summary of the method: as §1

H345 = assay: cells; conditions: Homo sapiens, NCI-H345, 6 h, read-out: AZD5991 6h EC50
Summary of the method: as §1

H526 = assay: cells; conditions: Homo sapiens, NCI-H526, 6 h, read-out: AZD5991 6h EC50
Summary of the method: as §1

HCC1187 = assay: cells; conditions: Homo sapiens, HCC1187, 6 h, read-out: AZD5991 6h EC50
Summary of the method: as §1

HMCB = assay: cells; conditions: Homo sapiens, 6 h, read-out: AZD5991 6h EC50
Summary of the method: as §1

Karpas422 = assay: cells; conditions: Homo sapiens, KARPAS-422, 6 h, read-out: AZD5991 6h EC50
Summary of the method: as §1

MUTZ3 = assay: cells; conditions: 6 h, read-out: AZD5991 6h EC50
Summary of the method: as §1

MWCL1 = assay: cells; conditions: 6 h, read-out: AZD5991 6h EC50
Summary of the method: as §1

NCI-H929 = assay: cells; conditions: Homo sapiens, NCI-H929, 6 h, read-out: AZD5991 6h EC50
Summary of the method: as §1

OCILY3 = assay: cells; conditions: Homo sapiens, OCI-Ly3, 6 h, read-out: AZD5991 6h EC50
Summary of the method: as §1

RI1 = assay: cells; conditions: Ri-1, 6 h, read-out: AZD5991 6h EC50
Summary of the method: as §1

RT4 = assay: cells; conditions: Homo sapiens, RT-4, 6 h, read-out: AZD5991 6h EC50
Summary of the method: as §1

Ramos [2] = assay: cells; conditions: Homo sapiens, 6 h, read-out: AZD5991 6h EC50
Summary of the method: as §1

SKMEL24 = assay: cells; conditions: Homo sapiens, SK-MEL-24, 6 h, read-out: AZD5991 6h EC50
Summary of the method: as §1

TMD8 = assay: cells; conditions: Homo sapiens, TMD8, 6 h, read-out: AZD5991 6h EC50
Summary of the method: as §1

U2OS = assay: cells; conditions: Homo sapiens, 6 h, read-out: AZD5991 6h EC50
Summary of the method: as §1

H23 = assay: Caspase-3/7 activation assay; assay type: cell-based; conditions: Homo sapiens
Procedure: as §2

Compound: Cc1c2c(nn1C)CSCc1cc(n(C)n1)CSc1cc(c3ccccc3c1)OCCCc1c(C(=O)O)n(C)c3c-2c(Cl)ccc13 (atropisomer, axis not shown; (Ra)) [(Ra)-7]
- tumor regression (TR) (MV4-11 tumors; single i.v. dose 10 mg kg^−1, 7 days after treatment): 66%
- tumor regression (TR) (MV4-11 tumors; single i.v. dose 30 mg kg^−1, 7 days after treatment): 93%
- mice with complete TR (MV4-11 tumors; single i.v. dose 100 mg kg^−1): six out of six
- GI50 (Ramos [1]): 11 nM
- GI50 (H2126): 320 nM
- EC50 (KG1; read-out: 6h caspase EC50, KG1, single agent): > 333 nM
- EC50 (KG1; read-out: AZD5991 6h EC50, KG1 (AML), caspase 3/7 activation): 509 nM
- EC50 (Calu1): > 30000 nM
- EC50 (Colo205): 121 nM
- EC50 (DMS79): > 30000 nM
- EC50 (Daudi): 16100 nM
- EC50 (GIST T1): > 30000 nM
- EC50 (H1395): 15400 nM
- EC50 (H2171): 141 nM
- EC50 (H345): > 30000 nM
- EC50 (H526): > 30000 nM
- EC50 (HCC1187): 235 nM
- EC50 (HMCB): 25900 nM
- EC50 (Karpas422): 530 nM
- EC50 (MUTZ3): 26 nM
- EC50 (MWCL1): 27700 nM
- EC50 (NCI-H929): 60 nM
- EC50 (OCILY3): > 30000 nM
- EC50 (RI1): > 30000 nM
- EC50 (RT4): 18100 nM
- EC50 (Ramos [2]): 28 nM
- EC50 (SKMEL24): > 30000 nM
- EC50 (TMD8): > 30000 nM
- EC50 (U2OS): > 30000 nM
- EC50 (H23; NCI-H23, 6 h, read-out: AZD5991 6h EC50, H23 (Lung), caspase 3/7 activation): 346 nM
- EC50 (H23; NCI-H23, caspase activation, Mcl-1-dependent cell line, read-out: NCI-H23, EC50): 190 nM
- EC50 (H23; NCI-H23, mean of log transformed data, read-out: NCI-H23 caspase pEC50 (converted)): 195 nM
